Results as given in patent US7932262B2 (Novartis AG, priority 2006, dated 2011).
Like-named read-outs stand apart in the source and are kept apart here.

Tests used:
[1] = target: T1, PDK1 kinase (Homo sapiens, UniProt O15530); experiment: PDK1 Kinase Alpha Screen Assay; type: biochemical
T1 sequence (O15530 1-556): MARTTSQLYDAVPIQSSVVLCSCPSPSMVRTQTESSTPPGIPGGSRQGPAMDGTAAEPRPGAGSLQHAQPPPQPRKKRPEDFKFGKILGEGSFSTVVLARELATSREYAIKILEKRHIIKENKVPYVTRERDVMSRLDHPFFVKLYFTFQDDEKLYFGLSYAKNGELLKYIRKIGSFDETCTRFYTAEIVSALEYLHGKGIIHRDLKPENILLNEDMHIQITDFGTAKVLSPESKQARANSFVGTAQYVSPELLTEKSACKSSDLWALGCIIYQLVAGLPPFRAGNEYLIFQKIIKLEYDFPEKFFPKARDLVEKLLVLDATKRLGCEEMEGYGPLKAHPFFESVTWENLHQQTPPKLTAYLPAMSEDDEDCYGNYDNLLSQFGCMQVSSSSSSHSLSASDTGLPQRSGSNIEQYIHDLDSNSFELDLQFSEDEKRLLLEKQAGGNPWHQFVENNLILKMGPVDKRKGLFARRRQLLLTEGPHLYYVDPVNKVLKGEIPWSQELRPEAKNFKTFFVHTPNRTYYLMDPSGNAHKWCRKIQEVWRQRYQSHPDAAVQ
Description: 1. PDK1 Kinase Alpha Screen Assay
Reagents/Concentrations: The PDK1-4 peptide substrate, biotin-[…]-NH2, was purchased from the Tufts University Core Facility. The final concentration of PDK1-4 peptide substrate was 50 nM The ATP substrate (Adenosine-5′-triphosphate) was purchased from Roche Diagnostics. The final concentration of ATP substrate was 10 uM. Phospho-(Ser/Thr) PKA substrate antibody was purchased from Cell Signaling Technology. The final concentration of antibody was 0.3 mg/ml. The Alpha Screen Protein A detection kit containing donor and acceptor beads was purchased from PerkinElmer Life Sciences. The final concentration of both donor and acceptor beads was 25 μg/ml. Alpha Screen was used for detection. The biotinylated-PDK1-4 peptide was phosphorylated by PDK1 kinase using the ATP substrate. The biotinylated-PDK1-4 peptide substrate was bound to the streptavidin coated donor bead. The antibody was bound to the protein A coated acceptor bead. The antibody bound to the phosphorylated form of the biotinylated PDK-1 peptide substrate, bringing the donor and acceptor beads into close proximity. Laser irradiation of the donor bead at 680 nm generated a flow of short-lived singlet oxygen molecules. When the donor and acceptor beads were in close proximity, the reactive oxygen generated by the irradiation of the donor beads initiated a luminescence/fluorescence cascade in the acceptor beads. This process led to a highly amplified signal with output in the 530-620 nm range. Assays were carried out in 50 mM Tris, pH=7.5, 10 mM MgCl2, 0.1% Bovine Serum Albumin, 0.01% Tween-20, 2 mM Dithiolthreitol, 2.5% Dimethyl Sulfoxide. Reactions were stopped by adding 50 mM Tris, pH=7.5, 90 mM EDTA, 0.1% Bovine Serum Albumin, 0.01% Tween-20.
Procedure: To 10 μl of PDK1-4 peptide, 0.5 μl of test compound in dimethyl sulfoxide is added. PDK1 kinase and ATP are mixed. 10 μl of the PDK1 kinase/ATP mix is added to start the reaction. The reaction is allowed to proceed for 3-18 hours. The reactions are stopped by adding 10 μl of the EDTA-containing stop buffer. Beads are mixed with antibody. 25 μl of the bead/antibody mix is added to the stopped reactions. Plates are incubated at room temperature overnight to allow for detection development before being read. The assay is run is a 384-well format. […]

[2] = test system: PC-3 cells; experiment: Cell Proliferation Assay (Cell Titer Glo), PC-3 cell line; type: cell-based; settings: Homo sapiens
How it was run: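 PC-3 cells, 1000 cells/well, left to adhere 3-5 h, then exposed for 3 days at 37° C to compounds as 1:3 serial dilutions from 500× DMSO stocks diluted in growth medium. Medium then replaced with fresh medium and viability read by Cell Titer Glo luminescence.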

[3] = head of the second part of Table 4: BV11261, read-out: PDK1 BV11261
[4] = PC-3, PC3 cells, read-out: CPEC50 PC3
[5] = PDK1 Kinase Alpha Screen Assay, read-out: PDK1 IC50
[6] = PC-3, Cell Proliferation Assay, PC3, read-out: CPEC50 PC3
[7] = PC-3, 72 h, PC-3 cells, 3 days incubation, read-out: CP EC50 PC3

Structure (SMILES): COc1c(-c2cnn(C)c2)cc(Cl)c2cnc(Nc3ccc(C(=O)N4CCOCC4)cc3)nc12 [Compound 1033, (4-(5-chloro-8-methoxy-7-(1-methyl-1H-pyrazol-4-yl)quinazolin-2-ylamino)phenyl)(morpholino)methanone]
- IC50 [1, 3]: < 5 µM
- EC50 [2, 4]: < 5 µM

Structure (SMILES): CC(C)N1CCC(Oc2cccc3cnc(Nc4ccc(C(=O)N5CCOCC5)cc4)nc23)CC1 [Compound 537, (4-(8-(1-isopropylpiperidin-4-yloxy)quinazolin-2-ylamino)phenyl)(morpholino)methanone]
- IC50 [1, 5]: < 5 µM
- EC50 [2, 6]: 5 to 10 µM

Structure (SMILES): CC(C)N1CCC(Oc2cccc3cnc(Nc4ccc(C(F)(F)F)cc4)nc23)CC1 [Compound 85, [8-(1-Isopropyl-piperidin-4-yloxy)-quinazolin-2-yl]-(4-trifluoromethyl-phenyl)-amine]
- IC50 ([1]; read-out: PDK1 IC50): < 5 µM
- EC50 [2, 7]: < 5 µM

Structure (SMILES): c1cc(N2CCOCC2)ccc1Nc1ncc2ccc(OC3CCNCC3)cc2n1 [Compound 614, N-(4-morpholinophenyl)-7-(piperidin-4-yloxy)quinazolin-2-amine]
- IC50 [1, 5]: < 5 µM
- EC50 [2, 6]: < 5 µM

Structure (SMILES): CC(C)NS(=O)(=O)c1ccc(Nc2ncc3ccc(OC4CCNCC4)cc3n2)cc1 [Compound 607, N-isopropyl-4-(7-(piperidin-4-yloxy)quinazolin-2-ylamino)benzenesulfonamide]
- IC50 [1, 5]: < 5 µM
- EC50 [2, 6]: < 5 µM

Structure (SMILES): C#Cc1cc2cnc(Nc3ccc(C(=O)N4CCOCC4)cc3)nc2cc1-c1ccc2c(c1)CCNC2=O [Compound 1041, 6-(6-ethynyl-2-(4-(morpholine-4-carbonyl)phenylamino)quinazolin-7-yl)-3,4-dihydroisoquinolin-1(2H)-one]
- IC50 [1, 3]: < 5 µM
- EC50 [2, 4]: 5 to 10 µM

Structure (SMILES): CS(=O)(=O)c1cccc(Nc2ncc3ccc(OC4CCNCC4)cc3n2)c1 [Compound 570, N-(3-(methylsulfonyl)phenyl)-7-(piperidin-4-yloxy)quinazolin-2-amine]
- IC50 [1, 5]: < 5 µM
- EC50 [2, 6]: < 5 µM

Structure (SMILES): CC(C)NC(=O)c1ccc(Nc2ncc3c(Cl)ccc(OC4CNC4)c3n2)cc1 [Compound 612, 4-(8-(azetidin-3-yloxy)-5-chloroquinazolin-2-ylamino)-N-isopropylbenzamide]
- IC50 [1, 5]: < 5 µM
- EC50 [2, 6]: 5 to 10 µM

Structure (SMILES): Fc1cc(Nc2ncc3cccc(OC4CCNCC4)c3n2)ccc1N1CCOCC1 [Compound 457, N-(3-fluoro-4-morpholinophenyl)-8-(piperidin-4-yloxy)quinazolin-2-amine]
- IC50 [1, 5]: < 5 µM
- EC50 [2, 6]: < 5 µM

Structure (SMILES): COCCNC(=O)c1ccc(Nc2ncc3cccc(OC4CCNCC4)c3n2)cc1Cl [Compound 486, 2-chloro-N-(2-methoxyethyl)-4-(8-(piperidin-4-yloxy)quinazolin-2-ylamino)benzamide]
- IC50 [1, 5]: < 5 µM
- EC50 [2, 6]: < 5 µM

Structure (SMILES): O=C(c1ccc(Nc2ncc3c(C(F)(F)F)ccc(OC4CCNCC4)c3n2)cc1)N1CCOCC1 [Compound 501, morpholino(4-(8-(piperidin-4-yloxy)-5-(trifluoromethyl)quinazolin-2-ylamino)phenyl)methanone]
- IC50 [1, 5]: < 5 µM
- EC50 [2, 6]: 5 to 10 µM

Structure (SMILES): CC(C)NS(=O)(=O)c1ccc(Nc2ncc3c(Cl)ccc(OC4CCNCC4)c3n2)cc1 [Compound 603, 4-(5-chloro-8-(piperidin-4-yloxy)quinazolin-2-ylamino)-N-isopropylbenzenesulfonamide]
- IC50 [1, 5]: < 5 µM
- EC50 [2, 6]: < 5 µM

Structure (SMILES): C#Cc1cc(OC2CCNCC2)c2nc(Nc3ccc(C(=O)N4CCOCC4)cc3)ncc2c1 [Compound 705, (4-(6-ethynyl-8-(piperidin-4-yloxy)quinazolin-2-ylamino)phenyl)(morpholino)methanone]
- IC50 [1, 5]: < 5 µM
- EC50 [2, 6]: < 5 µM

Structure (SMILES): Cc1ccc(-c2ccc3cnc(Nc4ccc(S(N)(=O)=O)cc4)nc3c2)c(F)n1 [Compound 939, 4-(7-(2-fluoro-6-methylpyridin-3-yl)quinazolin-2-ylamino)benzenesulfonamide]
- IC50 ([1]; read-out: PDK1 IC50): < 5 µM
- EC50 [2, 4]: < 5 µM

Structure (SMILES): Nc1ncc(-c2cccc3cnc(Nc4ccc(S(N)(=O)=O)cc4)nc23)cc1C(F)(F)F [Compound 929, 4-(8-(6-amino-5-(trifluoromethyl)pyridin-3-yl)quinazolin-2-ylamino)benzenesulfonamide]
- IC50 ([1]; read-out: PDK1 IC50): < 5 µM
- EC50 [2, 4]: < 5 µM

Structure (SMILES): c1cc(Nc2ncc3cccc(-c4ccc(NCCN5CCCC5)nc4)c3n2)cc(N2CCOCC2)c1 [Compound 1022, N-(3-morpholinophenyl)-8-(6-(2-(pyrrolidin-1-yl)ethylamino)pyridin-3-yl)quinazolin-2-amine]
- IC50 ([1]; read-out: PDK1 IC50): < 5 µM
- EC50 [2, 4]: < 5 µM

Structure (SMILES): CC(C)NC(=O)c1ccc(Nc2ncc3c(Cl)ccc(OC4CCNCC4)c3n2)cc1 [Compound 599, 4-(5-chloro-8-(piperidin-4-yloxy)quinazolin-2-ylamino)-N-isopropylbenzamide]
- IC50 [1, 5]: < 5 µM
- EC50 [2, 6]: < 5 µM

Structure (SMILES): COc1c(-c2cnn(C)c2)cc(Cl)c2cnc(Nc3cc(CN(C)C)cc(NC(C)=O)c3)nc12 [Compound 1037, N-(3-(5-chloro-8-methoxy-7-(1-methyl-1H-pyrazol-4-yl)quinazolin-2-ylamino)-5-((dimethylamino)methyl)phenyl)acetamide]
- IC50 [1, 3]: < 5 µM
- EC50 [2, 4]: < 5 µM

Structure (SMILES): NC(=O)c1cc(Nc2ncc3cccc(OC4CCNCC4)c3n2)ccc1N1CCOCC1 [Compound 448, 2-morpholino-5-(8-(piperidin-4-yloxy)quinazolin-2-ylamino)benzamide]
- IC50 [1, 5]: < 5 µM
- EC50 [2, 6]: 5 to 10 µM

Structure (SMILES): O=C(c1ccc(Nc2ncc3ccc(OC4CCNCC4)cc3n2)cc1)N1CCOCC1 [Compound 585, morpholilno(4-(7-(piperidin-4-yloxy)quinazolin-2-ylamino)phenyl)methanone]
- IC50 [1, 5]: < 5 µM
- EC50 [2, 6]: < 5 µM

Structure (SMILES): COc1ccc(Oc2cccc3cnc(Nc4ccc(S(N)(=O)=O)cc4)nc23)cn1 [Compound 410, 4-(8-(6-methoxypyridin-3-yloxy)quinazolin-2-ylamino)benzenesulfonamide]
- IC50 [1, 5]: < 5 µM
- EC50 [2, 6]: < 5 µM

Structure (SMILES): Cc1ccc(Nc2ncc3ccc(O)c(C4CCN(C(C)C)CC4)c3n2)cc1NS(C)(=O)=O [Compound 1026, N-(5-(7-hydroxy-8-(1-isopropylpiperidin-4-yl)quinazolin-2-ylamino)-2-methylphenyl)methanesulfonamide]
- IC50 ([1]; read-out: PDK1 IC50): < 5 µM
- EC50 [2, 4]: < 5 µM

Structure (SMILES): CC(C)N1CCC(Oc2ccc3cnc(Nc4ccc(F)cc4)nc3c2)CC1 [Compound 60, (4-Fluoro-phenyl)-[7-(1-isopropyl-piperidin-4-yloxy)-quinazolin-2-yl]-amine]
- IC50 ([1]; read-out: PDK1 IC50): < 5 µM
- EC50 [2, 7]: 5 to 10 µM

Structure (SMILES): N#Cc1ccc(Nc2ncc3cccc(OC4CCNCC4)c3n2)cc1 [Compound 489, 4-(8-(piperidin-4-yloxy)quinazolin-2-ylamino)benzonitrile]
- IC50 [1, 5]: < 5 µM
- EC50 [2, 6]: < 5 µM

Structure (SMILES): c1cc(Nc2ncc3cccc(OC4CCNCC4)c3n2)cc(N2CCOCC2)c1 [Compound 545, N-(3-morpholinophenyl)-8-(piperidin-4-yloxy)quinazolin-2-amine]
- IC50 [1, 5]: < 5 µM
- EC50 [2, 6]: < 5 µM

Structure (SMILES): CC(C)N1CCC(Oc2cccc3cnc(Nc4cccc(C#N)c4)nc23)CC1 [Compound 530, 3-(8-(1-isopropylpiperidin-4-yloxy)quinazolin-2-ylamino)benzonitrile]
- IC50 [1, 5]: < 5 µM
- EC50 [2, 6]: < 5 µM

Structure (SMILES): COc1ccc(Cl)c2cnc(Nc3cc(CN(C)C)cc(NC(C)=O)c3)nc12 [Compound 691]
- IC50 [1, 5]: < 5 µM
- EC50 [2, 6]: 5 to 10 µM

Structure (SMILES): COc1ccc(C(F)(F)F)c2cnc(Nc3ccc(C(=O)N4CCOCC4)cc3)nc12 [Compound 383]
- IC50 [1, 5]: < 5 µM
- EC50 [2, 6]: 5 to 10 µM
